Reference: US20110065796A1 (SHIRE LLC, priority 2009, published 2011)

What was measured:
[1] = Prodrug stability in simulated intestinal fluid; conditions: 37° C., pH 6.8, HPLC
Procedure: (§1) The remaining concentrations of the prodrugs were then assayed by H PLC.

[2] = Prodrug stability in simulated gastric fluid; conditions: 37° C., pH 1.1, HPLC
Procedure: as §1

Row | Compound | % prodrug remaining following incubation for 2 h in simulated intestinal fluid pH 6.8 [1] [%] | % prodrug remaining following incubation for 1 h in simulated gastric fluid pH 1.1 [2] [%]
1 | O=C(O)CC1N=C(NC(=O)Cc2c(Cl)cccc2Cl)NC1=O (centres unmarked) [Compound 4, Guanfacine Fumaryl Cyclic Adduct] | 84 | 97
2 | N=C(NC(=O)CCNC(=O)[C@@H]1CCC(=O)N1)NC(=O)Cc1c(Cl)cccc1Cl [Compound 10, Guanfacine (β-Alanine-(S)-Pyroglutamic acid) Amide] | 112 | 82
3 | CN1CC(=O)N=C1NC(=O)Cc1c(Cl)cccc1Cl [Compound 12, Guanfacine-Sarcosine Cyclic Adduct] | 87 | 48
4 | N=C(NC(=O)Cc1c(Cl)cccc1Cl)NC(=O)Oc1ccc(C[C@H](N)C(=O)O)cc1 [Compound 13, Guanfacine (S)-Tyrosine Carbamate] | 81 | 74
5 | CC(=O)N[C@@H](COC(=O)NC(=N)NC(=O)Cc1c(Cl)cccc1Cl)C(=O)O [Compound 15, Guanfacine Acetyl-(S)-Serine Carbamate] | 112 | 83
6 | N=C(NC(=O)Cc1c(Cl)cccc1Cl)NC(=O)OC[C@H](NC(=O)[C@@H]1CCC(=O)N1)C(=O)O [Compound 16, Guanfacine ((S)-Serine-(S)-Pyroglutamic acid) Carbamate] | 95 | 78
7 | CC(C)[C@@H](N)C(=O)N[C@@H](COC(=O)NC(=N)NC(=O)Cc1c(Cl)cccc1Cl)C(=O)O [Compound 18, Guanfacine ((S)-Serine-(R)-Valine) Carbamate] | 108 | 74
8 | C[C@@H](OC(=O)NC(=N)NC(=O)Cc1c(Cl)cccc1Cl)[C@H](NC(=O)[C@@H]1CCC(=O)N1)C(=O)O [Compound 19, Guanfacine ((S)-Threonine-(S)-Pyroglutamic acid) Carbamate] | 102 | 92
9 | CC(C)[C@H](N)C(=O)N[C@H](C(=O)O)[C@@H](C)OC(=O)NC(=N)NC(=O)Cc1c(Cl)cccc1Cl [Compound 20, Guanfacine ((S)-Threonine-(S)-Valine) Carbamate] | 100 | 79
10 | CC(C)[C@@H](N)C(=O)NCCCC(=O)NC(=N)NC(=O)Cc1c(Cl)cccc1Cl [Compound 22, Guanfacine (GABA-(R)-Valine) Amide] | 85 | 106
11 | CC(C)[C@@H](N)C(=O)NCCOC(=O)NC(=N)NC(=O)Cc1c(Cl)cccc1Cl [Compound 27, Guanfacine (Ethanolamine-(R)-Valine) Carbamate] | 111 | 78
12 | N=C(NC(=O)Cc1c(Cl)cccc1Cl)NC(=O)OCCNC(=O)[C@@H]1CCC(=O)N1 [Compound 28, Guanfacine (Ethanolamine-(S)-Pyroglutamic acid) Carbamate] | 106 | 103
13 | CC(C)[C@H](NC(=O)COC(=O)NC(=N)NC(=O)Cc1c(Cl)cccc1Cl)C(=O)O [Compound 29, Guanfacine (Glycolyl-(S)-Valine) Carbamate] | 99 | 80
14 | CC(C)[C@H](NC(=O)CC(C)(C)CC(=O)NC(=N)NC(=O)Cc1c(Cl)cccc1Cl)C(=O)O [Compound 33, Guanfacine (3,3-dimethylglutaryl-(S)-Valine) Amide] | 99 | 79
15 | O=C1CCN=C(NC(=O)Cc2c(Cl)cccc2Cl)N1 [Compound 34, Guanfacine-β-Alanine Cyclic Adduct] | 91 | 51
16 | NCCCC[C@@H]1N=C(NC(=O)Cc2c(Cl)cccc2Cl)NC1=O [Compound 36, Guanfacine-(S)-Lysine Cyclic Adduct] | 101 | 83
17 | NC(=O)CC[C@@H]1N=C(NC(=O)Cc2c(Cl)cccc2Cl)NC1=O [Compound 38, Guanfacine-(S)-Glutamine Cyclic Adduct] | 87 | 70
18 | CC(C)C[C@@H](N)C(=O)N[C@@H](CCC(=O)NC(=N)NC(=O)Cc1c(Cl)cccc1Cl)C(=O)O [Compound 42, Guanfacine ((S)-γ-Glutamate-(R)-Leucine) Amide] | 83 | 70
19 | N=C(NC(=O)CC[C@H](NC(=O)[C@H](N)CCCCN)C(=O)O)NC(=O)Cc1c(Cl)cccc1Cl [Compound 43, Guanfacine ((S)-γ-Glutamate-(R)-Lysine) Amide] | 85 | 62
20 | N=C(NC(=O)CC[C@H](NC(=O)[C@H](N)Cc1ccc(O)cc1)C(=O)O)NC(=O)Cc1c(Cl)cccc1Cl [Compound 45, Guanfacine ((S)-γ-Glutamate-(R)-Tyrosine) Amide] | 91 | 74

More lines, now with the values ahead:

Row | % prodrug remaining following incubation for 2 h in simulated intestinal fluid pH 6.8 [1] [%] | % prodrug remaining following incubation for 1 h in simulated gastric fluid pH 1.1 [2] [%] | Compound
21 | 98 | 81 | N=C(NC(=O)CC[C@H](NC(=O)[C@@H]1CCC(=O)N1)C(=O)O)NC(=O)Cc1c(Cl)cccc1Cl [Compound 6, Guanfacine ((S)-γ-Glutamate-(S)-Pyroglutamic acid) Amide]
22 | 100 | 96 | N=C(NC(=O)Cc1c(Cl)cccc1Cl)NC(=O)NC(C(=O)O)c1ccccc1 (centres unmarked) [Compound 8, Guanfacine Phenylglycine Urea]
23 | 108 | 70 | N=C(NC(=O)Cc1c(Cl)cccc1Cl)NC(=O)O[C@@H]1CN[C@H](C(=O)O)C1 [Compound 14, Guanfacine (S,S)-4-Hydroxyproline Carbamate]
24 | 103 | 83 | CC(C)[C@@H](N)C(=O)N[C@H](C(=O)O)[C@@H](C)OC(=O)NC(=N)NC(=O)Cc1c(Cl)cccc1Cl [Compound 21, Guanfacine ((S)-Threonine-(R)-Valine) Carbamate]
25 | 78 | 98 | N=C(NC(=O)CCCNC(=O)[C@@H]1CCC(=O)N1)NC(=O)Cc1c(Cl)cccc1Cl [Compound 23, Guanfacine (GABA-(S)-Pyroglutamic acid) Amide]
26 | 160 | 77 | CC(C)[C@@H](NC(=O)COC(=O)NC(=N)NC(=O)Cc1c(Cl)cccc1Cl)C(=O)O [Compound 30, Guanfacine (Glycolyl -(R)-Valine) Carbamate]
27 | 85 | 70 | CC(C)[C@@H](N)C(=O)N[C@H](CCC(=O)NC(=N)NC(=O)Cc1c(Cl)cccc1Cl)C(=O)O [Compound 31, Guanfacine ((R)-γ-Glutamate (R)-Valine) Amide]
28 | 84 | 93 | CC(C)[C@H](N)C(=O)N[C@H](CCC(=O)NC(=N)NC(=O)Cc1c(Cl)cccc1Cl)C(=O)O [Compound 32, Guanfacine ((R)-γ-Glutamate-(S)-Valine) Amide]
29 | 108 | 83 | CC(C)[C@@H]1N=C(NC(=O)Cc2c(Cl)cccc2Cl)NC1=O [Compound 35, Guanfacine-(S)-Valine Cyclic Adduct]
30 | 104 | 89 | C[C@@H]1N=C(NC(=O)Cc2c(Cl)cccc2Cl)NC1=O [Compound 39, Guanfacine-(S)-AlanineCyclic Adduct]
31 | 85 | 75 | CSCC[C@@H](N)C(=O)N[C@@H](CCC(=O)NC(=N)NC(=O)Cc1c(Cl)cccc1Cl)C(=O)O [Compound 44, Guanfacine ((S)-γ-Glutamate-(R)-Methionine) Amide]
